# In patent US20110224170A1, “Pyranopyranone derivatives as antimicrobial agents” (BASF SE, priority 2010, published 2011):
# Columns and labels:
# [1] = tested on: Candida albicans ATCC 10231; test: Suspension test for fungicidal activity (modified EN 1275), residual cell count; assay type: cell-based; details: C. albicans
# Method: The fungicidal activity of the compounds of the present invention is measured in a suspension test according to trivial modifications of the European Standard method EN 1275. The pyrano pyranone derivatives are dissolved in ethanol or DMSO resulting in 1% stock solutions of the compounds. The cell density of Candida albicans ATCC 10231 used as inoculum for the suspension test was 2.4×10^8 cfu/ml and of A. niger ATCC 6275 3.8×10^8 cfu/ml. For the suspension tests, an appropriate concentration of the test compound is mixed with a Candida albicans suspension resulting in a final cell count of about 10^5 cfu/ml. These test mixtures are incubated at room temperature (22° C.+/−2° C.) and aliquots of 1 ml test mixture containing Candida albicans were taken after set contact times for determination of the residual cell count. For inactivation of the antimicrobial compounds, the 1 ml aliquots are diluted in 1:10 steps in a solution with 10% Tween, 3% lecithin, 0.1% histidine and 0.5% sodium thiosulfate.
# A. niger ATCC 6275 = test: as above; assay type: cell-based, Aspergillus niger
# Method: The fungicidal activity of the compounds of the present invention is measured in a suspension test according to trivial modifications of the European Standard method EN 1275. The pyrano pyranone derivatives are dissolved in ethanol or DMSO resulting in 1% stock solutions of the compounds. The cell density of Candida albicans ATCC 10231 used as inoculum for the suspension test was 2.4×10^8 cfu/ml and of A. niger ATCC 6275 3.8×10^8 cfu/ml. Aliquots of 1 ml were taken of the A. niger containing test mixtures after set contact times for determination of the residual cell count. For inactivation of the antimicrobial compounds, the 1 ml aliquots were diluted in 1:10 steps in a solution of the following composition: [table]
# [2] = tested on: gram positive and gram negative bacteria; test: Suspension test for bactericidal activity (modified EN 1040), residual cell count; assay type: cell-based
# Method: The bactericidal activity of the compounds of the present invention is measured in a suspension test according to trivial modifications of the European Standard method EN 1040. Substances listed in Table 1 are tested against gram positive and gram negative bacteria, yeasts and moulds. A selection of the results is shown in the following. The pyrano pyranone derivatives are dissolved in ethanol or DMSO resulting in 1% stock solutions of the compounds. The cell densities of the bacterial suspensions used as inoculums for the suspension test are as follows (cfu=colony forming units): [table] For the suspension tests, an appropriate concentration of the test compound is mixed with a bacterial suspension resulting in a final cell count in the mixture of about 10^5 cfu/ml. These test mixtures are incubated at room temperature (22° C.+/−2° C.) and aliquots of 1 ml test mixture containing the test bacteria were taken after set contact times for determination of the residual cell count of test bacteria. For inactivation of the antimicrobial compounds, the 1 ml aliquots are diluted in 1:10 steps in a solution with 10% Tween, 3% lecithin, 0.1% histidine and 0.5% sodium thiosulfate.
# [3] = tested on: Malassezia furfur DSM 6171, CIP 1636-86; test: Agar incorporation test, minimum inhibitory concentration (MIC); assay type: cell-based; details: M. fufur
# Method: For determination of the microbistatic activity, the Minimum Inhibitory Concentrations (MIC) of the test compounds is determined.
# The pyrano pyranone derivatives are also tested in an agar incorporation test in order to determine their minimum inhibitory concentrations (MIC) against various tests organisms. A selection of the results is shown in the following.
# For this compound, a 1% stock solutions i9s prepared in ethanol.
# A dilution series of the test compound in 15 ml still liquid agar media are prepared with 400 ppm, 200 ppm, 100 ppm, 50 ppm, 25 ppm, 12.5 ppm, 6.25 ppm, 3.125 ppm and 1.56 pmm of active.
# The media used for the agar plates are Müller-Hinton (Merck) for the determination of the MIC against bacteria and C. albicans and Sabouraud Agar (Merck) for the determination of the MIC against A. niger. For the determination of the MIC against Malassezia furfur DSM 6171, CIP 1636-86 Medium 472 (DSMZ—Deutsche Sammlung von Mikroorganismen and Zellkulturen GmbH) was used.
# After solidification of the agar, all agar plates containing the test compounds were stored over night in the laboratory (at about 22° C.) for drying. […]
# 10 μl of these cell dilutions are then dotted onto the surface of the agar media. […] (for Aspergillus niger), 4 days at 30° C. and then the highest dilution of the test compound at which no more growth was observed (corresponds to the MIC) is determined. […]
# [4] = P. aeruginosa, contact time 24 h
MIC [3] [µg/mL],SMILES,log reduction after set contact time ([1]; contact time 24 h),residual cell count (cfu/ml) after set contact time ([1]; contact time 24 h) [cfu/ml],log reduction after set contact time (A. niger ATCC 6275; contact time 7 d),residual cell count (cfu/ml) after set contact time (A. niger ATCC 6275; contact time 7 d),"log reduction after set contact time ([2]; E. coli, contact time 24 h)","residual cell count (cfu/ml) after set contact time ([2]; E. coli, contact time 24 h)","log reduction after set contact time [2, 4]","residual cell count (cfu/ml) after set contact time [2, 4] [cfu/ml]","log reduction after set contact time ([2]; S. aureus, contact time 24 h)","residual cell count (cfu/ml) after set contact time ([2]; S. aureus, contact time 24 h) [cfu/ml]",log reduction after set contact time (A. niger ATCC 6275; contact time 24 h),residual cell count (cfu/ml) after set contact time (A. niger ATCC 6275; contact time 24 h),log reduction after set contact time ([1]; contact time 7 d),residual cell count (cfu/ml) after set contact time ([1]; contact time 7 d) [cfu/ml],"log reduction after set contact time ([2]; S. aureus, contact time 7 d)","residual cell count (cfu/ml) after set contact time ([2]; S. aureus, contact time 7 d) [cfu/ml]"
–,CC(C)=CCCC1(C)C=Cc2c(cc(C)oc2=O)O1 (stereo not shown) [P-3],>3,<100,2.2,1.2 × 10^3 cfu/ml,>3,<100 cfu/ml,>3,<100,>3,<100,–,–,–,–,–,–
–,CC1=Cc2c(cc(C)oc2=O)OC1C (stereo not shown) [P-1],>3,<100,–,–,>3,<100 cfu/ml,>3,<100,>3,<100,2.2,1.2 × 10^3 cfu/ml,–,–,–,–
–,Cc1cc2c(c(=O)o1)C=CC(C)(C)O2 [P-4],>3,<100,–,–,>3,<100 cfu/ml,>3,<100,>3,<100,>3,<10 cfu/ml,–,–,–,–
–,CCCC1C=Cc2c(cc(C)oc2=O)O1 (stereo not shown) [P-6],>3,<100,–,–,>3,<100 cfu/ml,>3,<100,>3,<100,>3,<10 cfu/ml,–,–,–,–
50,CC1=Cc2c(cc(C)oc2=O)OC1c1ccco1 (stereo not shown) [P-5],–,–,–,–,>3,4.0 × 10^2 cfu/ml,>3,<100,–,–,–,–,>3,<100,>3,<100
